How the values were obtained:
Format in all cases: cell-based
[1] = target: T1, von Hippel-Lindau disease tumor suppressor/Androgen receptor (Homo sapiens) (UniProt P10275+P40337); assay: Protac activity at VHL/AR in human MCF7 cells assessed as induction of AR protein degradation incubated for 8 to 24 hrs by western blot analysis; conditions: time hrs 8-24
[2] = target: T2, von Hippel-Lindau disease tumor suppressor/Estrogen receptor (Homo sapiens) (UniProt P03372+P40337); assay: Protac activity at VHL/ERalpha in human MCF7 cells assessed as induction of ERalpha protein degradation incubated for 8 to 24 hrs by western blot analysis; conditions: time hrs 8-24
T2 sequence (P03372 whole entry, looked up): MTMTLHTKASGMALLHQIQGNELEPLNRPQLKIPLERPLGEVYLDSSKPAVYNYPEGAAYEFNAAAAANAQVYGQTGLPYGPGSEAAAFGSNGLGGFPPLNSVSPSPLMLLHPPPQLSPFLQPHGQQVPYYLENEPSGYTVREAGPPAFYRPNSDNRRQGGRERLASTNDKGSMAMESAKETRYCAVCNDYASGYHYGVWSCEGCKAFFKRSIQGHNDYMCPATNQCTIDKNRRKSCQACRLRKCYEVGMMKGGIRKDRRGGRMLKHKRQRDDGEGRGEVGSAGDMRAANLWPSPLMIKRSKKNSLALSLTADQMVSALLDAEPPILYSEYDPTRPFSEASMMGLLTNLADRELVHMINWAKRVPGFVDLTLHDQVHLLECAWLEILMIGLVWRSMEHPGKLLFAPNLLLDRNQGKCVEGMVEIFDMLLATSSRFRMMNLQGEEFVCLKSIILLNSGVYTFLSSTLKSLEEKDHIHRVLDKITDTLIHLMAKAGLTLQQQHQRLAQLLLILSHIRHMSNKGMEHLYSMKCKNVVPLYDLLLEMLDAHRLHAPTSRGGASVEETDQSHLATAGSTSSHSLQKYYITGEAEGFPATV
T2 sequence (P40337 whole entry, looked up): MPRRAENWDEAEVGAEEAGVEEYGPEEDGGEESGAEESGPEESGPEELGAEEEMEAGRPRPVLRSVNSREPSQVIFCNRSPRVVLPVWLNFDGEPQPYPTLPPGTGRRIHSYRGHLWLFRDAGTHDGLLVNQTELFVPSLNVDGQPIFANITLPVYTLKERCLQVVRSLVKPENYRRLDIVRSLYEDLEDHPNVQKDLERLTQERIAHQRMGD

[3] = target: T1, von Hippel-Lindau disease tumor suppressor/Androgen receptor (Homo sapiens); assay: Protac activity at VHL/AR in human MCF7 cells assessed as induction of AR protein degradation by measuring AR protein level at 5 uM incubated for 8 hrs by western blot analysis relative to lamin B
[4] = target: T1, von Hippel-Lindau disease tumor suppressor/Androgen receptor (Homo sapiens); assay: Protac activity at VHL/AR in human MCF7 cells assessed as induction of AR protein degradation by measuring AR protein level at 10 uM incubated for 8 hrs by western blot analysis relative to lamin B
[5] = target: T1, von Hippel-Lindau disease tumor suppressor/Androgen receptor (Homo sapiens); assay: Protac activity at VHL/AR in human MCF7 cells assessed as induction of AR protein degradation by measuring AR protein level at 20 uM incubated for 8 hrs by western blot analysis relative to lamin B
[6] = target: T2, von Hippel-Lindau disease tumor suppressor/Estrogen receptor (Homo sapiens); assay: Protac activity at VHL/ERalpha in human MCF7 cells assessed as induction of ERalpha protein degradation by measuring ERalpha protein level at 5 uM incubated for 8 hrs by western blot analysis relative to lamin B
[7] = target: T2, von Hippel-Lindau disease tumor suppressor/Estrogen receptor (Homo sapiens); assay: Protac activity at VHL/ERalpha in human MCF7 cells assessed as induction of ERalpha protein degradation by measuring ERalpha protein level at 10 uM incubated for 8 hrs by western blot analysis relative to lamin B
[8] = target: T2, von Hippel-Lindau disease tumor suppressor/Estrogen receptor (Homo sapiens); assay: Protac activity at VHL/ERalpha in human MCF7 cells assessed as induction of ERalpha protein degradation by measuring ERalpha protein level at 20 uM incubated for 8 hrs by western blot analysis relative to lamin B
[9] = target: T1, von Hippel-Lindau disease tumor suppressor/Androgen receptor (Homo sapiens); assay: Protac activity at VHL/AR in human MCF7 cells assessed as induction of AR protein degradation by measuring AR protein level at 5 uM incubated for 24 hrs by western blot analysis relative to lamin B
[10] = target: T1, von Hippel-Lindau disease tumor suppressor/Androgen receptor (Homo sapiens); assay: Protac activity at VHL/AR in human MCF7 cells assessed as induction of AR protein degradation by measuring AR protein level at 10 uM incubated for 24 hrs by western blot analysis relative to lamin B
[11] = target: T1, von Hippel-Lindau disease tumor suppressor/Androgen receptor (Homo sapiens); assay: Protac activity at VHL/AR in human MCF7 cells assessed as induction of AR protein degradation by measuring AR protein level at 20 uM incubated for 24 hrs by western blot analysis relative to lamin B
[12] = target: T2, von Hippel-Lindau disease tumor suppressor/Estrogen receptor (Homo sapiens); assay: Protac activity at VHL/ERalpha in human MCF7 cells assessed as induction of ERalpha protein degradation by measuring ERalpha protein level at 5 uM incubated for 24 hrs by western blot analysis relative to lamin B
[13] = target: T2, von Hippel-Lindau disease tumor suppressor/Estrogen receptor (Homo sapiens); assay: Protac activity at VHL/ERalpha in human MCF7 cells assessed as induction of ERalpha protein degradation by measuring ERalpha protein level at 10 uM incubated for 24 hrs by western blot analysis relative to lamin B
[14] = target: T2, von Hippel-Lindau disease tumor suppressor/Estrogen receptor (Homo sapiens); assay: Protac activity at VHL/ERalpha in human MCF7 cells assessed as induction of ERalpha protein degradation by measuring ERalpha protein level at 20 uM incubated for 24 hrs by western blot analysis relative to lamin B
[15] = target: T3, von Hippel-Lindau disease tumor suppressor/Aryl hydrocarbon receptor (Homo sapiens, UniProt P35869+P40337); assay: Protac activity at VHL/AhR in human MCF7 cells assessed as induction of AhR protein degradation by measuring AhR protein level at 5 uM incubated for 8 hrs by western blot analysis relative to lamin B; conditions: mcf7, 8 h
T3 sequence (P35869 whole entry): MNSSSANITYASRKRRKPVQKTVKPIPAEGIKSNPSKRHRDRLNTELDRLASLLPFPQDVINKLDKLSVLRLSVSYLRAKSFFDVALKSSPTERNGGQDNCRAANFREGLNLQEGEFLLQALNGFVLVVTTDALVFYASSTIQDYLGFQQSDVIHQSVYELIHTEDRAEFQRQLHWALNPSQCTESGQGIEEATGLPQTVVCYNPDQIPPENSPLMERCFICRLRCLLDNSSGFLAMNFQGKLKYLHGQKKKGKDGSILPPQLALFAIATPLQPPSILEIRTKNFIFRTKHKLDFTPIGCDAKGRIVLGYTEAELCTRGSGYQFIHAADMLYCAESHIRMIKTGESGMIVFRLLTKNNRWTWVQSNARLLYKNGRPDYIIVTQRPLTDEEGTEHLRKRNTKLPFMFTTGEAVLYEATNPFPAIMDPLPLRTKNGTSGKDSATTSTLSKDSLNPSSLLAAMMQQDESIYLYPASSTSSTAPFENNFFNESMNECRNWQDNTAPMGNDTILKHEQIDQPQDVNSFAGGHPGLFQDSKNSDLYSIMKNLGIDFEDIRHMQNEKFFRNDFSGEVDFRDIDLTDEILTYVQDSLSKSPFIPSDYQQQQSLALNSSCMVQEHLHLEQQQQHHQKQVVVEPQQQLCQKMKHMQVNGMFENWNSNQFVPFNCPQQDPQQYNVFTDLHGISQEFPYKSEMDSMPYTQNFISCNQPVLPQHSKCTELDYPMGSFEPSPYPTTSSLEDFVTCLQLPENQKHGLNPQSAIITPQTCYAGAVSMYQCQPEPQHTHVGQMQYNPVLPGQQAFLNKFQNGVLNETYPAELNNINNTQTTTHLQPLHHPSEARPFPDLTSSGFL
T3 sequence (P40337 whole entry): as the sequence (P40337 whole entry, looked up) above

[16] = target: T3, von Hippel-Lindau disease tumor suppressor/Aryl hydrocarbon receptor; assay: Protac activity at VHL/AhR in human MCF7 cells assessed as induction of AhR protein degradation by measuring AhR protein level at 10 uM incubated for 8 hrs by western blot analysis relative to lamin B; conditions: mcf7, 8 h
[17] = target: T3, von Hippel-Lindau disease tumor suppressor/Aryl hydrocarbon receptor; assay: Protac activity at VHL/AhR in human MCF7 cells assessed as induction of AhR protein degradation by measuring AhR protein level at 20 uM incubated for 8 hrs by western blot analysis relative to lamin B; conditions: mcf7, 8 h
[18] = target: T3, von Hippel-Lindau disease tumor suppressor/Aryl hydrocarbon receptor; assay: Protac activity at VHL/AhR in human MCF7 cells assessed as induction of AhR protein degradation by measuring AhR protein level at 5 uM incubated for 24 hrs by western blot analysis relative to lamin B; conditions: mcf7, 24 h
[19] = target: T3, von Hippel-Lindau disease tumor suppressor/Aryl hydrocarbon receptor; assay: Protac activity at VHL/AhR in human MCF7 cells assessed as induction of AhR protein degradation by measuring AhR protein level at 10 uM incubated for 24 hrs by western blot analysis relative to lamin B; conditions: mcf7, 24 h
[20] = target: T3, von Hippel-Lindau disease tumor suppressor/Aryl hydrocarbon receptor; assay: Protac activity at VHL/AhR in human MCF7 cells assessed as induction of AhR protein degradation by measuring AhR protein level at 20 uM incubated for 24 hrs by western blot analysis relative to lamin B; conditions: mcf7, 24 h
[21] = target: T1, von Hippel-Lindau disease tumor suppressor/Androgen receptor (Homo sapiens); assay: Protac activity at VHL/AR in human MCF7 cells assessed as induction of AR protein degradation by measuring AR protein level at 20 uM incubated for 8 hrs in presence of proteasome inhibitor, MG132 by western blot analysis relative to lamin B
[22] = target: T1, von Hippel-Lindau disease tumor suppressor/Androgen receptor (Homo sapiens); assay: Protac activity at VHL/AR in human MCF7 cells assessed as induction of AR protein degradation by measuring AR protein level at 20 uM incubated for 8 hrs in presence of ubiquitin activating inhibitor MLN7243 by western blot analysis relative to lamin B
[23] = target: T2, von Hippel-Lindau disease tumor suppressor/Estrogen receptor (Homo sapiens); assay: Protac activity at VHL/ERalpha in human MCF7 cells assessed as induction of ERalpha protein degradation by measuring ERalpha protein level at 20 uM incubated for 8 hrs in presence of proteasome inhibitor, MG132 by western blot analysis relative to lamin B
[24] = target: T2, von Hippel-Lindau disease tumor suppressor/Estrogen receptor (Homo sapiens); assay: Protac activity at VHL/ERalpha in human MCF7 cells assessed as induction of ERalpha protein degradation by measuring ERalpha protein level at 20 uM incubated for 8 hrs in presence of ubiquitin activating inhibitor MLN7243 by western blot analysis relative to lamin B
[25] = target: T3, von Hippel-Lindau disease tumor suppressor/Aryl hydrocarbon receptor; assay: Protac activity at VHL/AhR in human MCF7 cells assessed as induction of AhR protein degradation by measuring AhR protein level at 20 uM incubated for 8 hrs in presence of proteasome inhibitor, MG132 by western blot analysis relative to lamin B; conditions: mcf7, 8 h
[26] = target: T3, von Hippel-Lindau disease tumor suppressor/Aryl hydrocarbon receptor; assay: Protac activity at VHL/AhR in human MCF7 cells assessed as induction of AhR protein degradation by measuring AhR protein level at 20 uM incubated for 8 hrs in presence of ubiquitin activating inhibitor MLN7243 by western blot analysis relative to lamin B; conditions: mcf7, 8 h
[27] = target: T1, von Hippel-Lindau disease tumor suppressor/Androgen receptor (Homo sapiens); assay: Protac activity at VHL/AR in VHL siRNA-transfected human MCF7 cells assessed as induction of AR protein degradation by measuring AR protein level at 20 uM incubated for 8 hrs by western blot analysis relative to lamin B
[28] = target: T2, von Hippel-Lindau disease tumor suppressor/Estrogen receptor (Homo sapiens); assay: Protac activity at VHL/ERalpha in VHL siRNA-transfected human MCF7 cells assessed as induction of ERalpha protein degradation by measuring ERalpha protein level at 20 uM incubated for 8 hrs by western blot analysis relative to lamin B

T1 sequence (P10275 whole entry, looked up): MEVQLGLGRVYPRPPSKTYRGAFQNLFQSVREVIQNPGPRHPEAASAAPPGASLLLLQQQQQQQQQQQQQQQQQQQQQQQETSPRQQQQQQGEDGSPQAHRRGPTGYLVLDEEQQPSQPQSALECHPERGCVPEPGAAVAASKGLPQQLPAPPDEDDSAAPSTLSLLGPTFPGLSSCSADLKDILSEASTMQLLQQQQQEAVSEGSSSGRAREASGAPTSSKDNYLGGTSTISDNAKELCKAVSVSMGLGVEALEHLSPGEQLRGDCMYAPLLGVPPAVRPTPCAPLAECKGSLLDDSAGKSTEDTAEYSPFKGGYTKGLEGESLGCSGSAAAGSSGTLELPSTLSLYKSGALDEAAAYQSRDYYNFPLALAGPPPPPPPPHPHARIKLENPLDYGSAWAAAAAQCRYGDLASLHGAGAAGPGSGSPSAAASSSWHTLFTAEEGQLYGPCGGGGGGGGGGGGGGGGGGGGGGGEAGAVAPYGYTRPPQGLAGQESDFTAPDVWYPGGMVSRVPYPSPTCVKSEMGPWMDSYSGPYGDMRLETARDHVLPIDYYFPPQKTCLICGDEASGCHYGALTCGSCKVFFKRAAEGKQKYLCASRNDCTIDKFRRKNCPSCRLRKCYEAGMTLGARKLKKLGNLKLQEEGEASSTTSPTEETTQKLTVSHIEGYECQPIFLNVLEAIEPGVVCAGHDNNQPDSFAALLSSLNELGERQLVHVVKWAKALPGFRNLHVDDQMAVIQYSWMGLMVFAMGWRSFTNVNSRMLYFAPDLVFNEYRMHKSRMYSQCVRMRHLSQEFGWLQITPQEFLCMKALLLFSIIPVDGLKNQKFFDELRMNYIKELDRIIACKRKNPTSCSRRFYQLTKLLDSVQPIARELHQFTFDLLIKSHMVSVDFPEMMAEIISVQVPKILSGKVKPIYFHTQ
T1 sequence (P40337 whole entry, looked up): as the sequence (P40337 whole entry, looked up) above

- Activity [1]: Dose-dependent effect
- Activity [2]: Dose-dependent effect
- Activity [3]: 92%
- Activity [4]: 75%
- Activity [5]: 54%
- Activity [6]: 93%
- Activity [7]: 84%
- Activity [8]: 64%
- Activity [9]: 97%
- Activity [10]: 103%
- Activity [11]: 90%
- Activity [12]: 86%
- Activity [13]: 76%
- Activity [14]: 57%
- Activity [15]: 84%
- Activity [16]: 105%
- Activity [17]: 105%
- Activity [18]: 83%
- Activity [19]: 100%
- Activity [20]: 97%
- Activity [21]: 97%
- Activity [22]: 102%
- Activity [23]: 92%
- Activity [24]: 108%
- Activity [25]: 113%
- Activity [26]: 101%
- Activity [27]: 98%
- Activity [28]: 84%
SMILES: CC[C@H](C)[C@@H]1NC(=O)[C@H](NC(=O)[C@@H](N)CCCCNC(=O)CCCCC(=O)NCCOCCOCCOCC(=O)N[C@H](C(=O)N2C[C@H](O)C[C@H]2C(=O)NCc2ccc(-c3scnc3C)cc2)C(C)(C)C)CSSC[C@@H](C(=O)N[C@@H](CCCNC(=N)N)C(=O)N[C@@H](CC(C)(C)C)C(=O)N[C@@H](CC(C)C)C(=O)N[C@@H](CCC(N)=O)C(=O)NCC(=O)NCC(=O)NCC(=O)N[C@@H](CCCNC(=N)N)C(=O)N[C@@H](CCCNC(=N)N)C(=O)N[C@@H](CCCNC(=N)N)C(=O)N[C@@H](CCCNC(=N)N)C(=O)N[C@@H](CCCNC(=N)N)C(=O)N[C@@H](CCCNC(=N)N)C(=O)N[C@@H](CCCNC(=N)N)C(N)=O)NC(=O)[C@H](CC(C)C)NC1=O
